Measured values published in patent publication US20250025435A1, “CO-CRYSTALS OF NONSTEROIDAL ANTI-INFLAMMATORY DRUGS, LYSINE AND GABAPENTIN, PHARMACEUTICAL COMPOSITIONS AND THEIR MEDICAL USE” (DOMPE' FARMACEUTICI SPA, priority 2021, published 2025).

How the values were obtained:
[1] = system: mechanical allodynia in carrageenan-injected rats; assay: Mechanical allodynia (von Frey, up and down method) in rat carrageenan-induced paw edema model; type: in vivo, Male Wistar rats; details: 3 h post-carrageenan; ipsilateral paw; n=8; vehicle 8.25±1.61 g, baseline 80±7.56 g
[2] = system: carrageenan-induced rat paw edema; assay: Carrageenan-induced rat paw edema test; type: in vivo, Male Wistar rats; details: for volume reduction of paw edema in rats (%): vs vehicle-treated group, single oral dose; for paw thickness: mean±SEM, n=8, vehicle 9.55±0.47 mm
[3] = cited from earlier work
[4] = design: species or system Sprague Dawley male rat; details: rat, in vivo, po
Text: Sprague Dawley male rat (body weights 310 gr at the time of the treatment) were used in this study. The animals were originally supplied by Harlan, Italy. Once receipt from the supplier, the animals were subjected to health examinations and acceptance. The animals were housed, in a group of three, in cages suitable for the species and were routinely kept in the following environment except for short periods of time where experimental procedures dictated otherwise. The animals were acclimatized to local housing conditions for approximately 5 days. The animals were housed in a single, exclusive room, air conditioned to provide a minimum of 15 air changes/hour. The environmental controls were set to maintain temperature within the range 22° C. and relative humidity within the range 50 to 60% with an approximate 12 hour light and 12 hour dark cycle that is controlled automatically. Food (Mucedola Standard GLP diet) and water were available ad libitum throughout the study. All animals were weighed on the day of each treatment. Clinical signs were monitored at regular intervals throughout the study in order to assess any reaction to treatment. Each animal was uniquely identified with a coloured spray on the back before the experiment. At the end of the study animals were sacrificed by exsanguination under anaesthesia. […]

In the case of `CC(C(=O)O)c1ccc(-c2ccccc2)c(F)c1` (stereo not drawn) [Flurbiprofen], the paw withdrawal threshold [1] is reported as 44.62 ± 14.43 g, the “volume reduction of paw edema in rats (%)” value (shortened to “volume reduction … (%)”) ([2]; 1 h post-carrageenan) is reported as −18.20% and the “volume reduction … (%)” value ([2]; 3 h post-carrageenan) is reported as −31.50%. The paw thickness ([2]; 5 h post-carrageenan) was 6.5±0.28 mm and the “volume reduction … (%)” value ([2]; 5 h post-carrageenan) was −32.0%.

In the case of `NCC1(CC(=O)O)CCCCC1` [Gabapentin], the paw withdrawal threshold [1] is reported as 66.5 ± 11 g, the “volume reduction … (%)” value ([2]; 1 h post-carrageenan) is reported as −1.93% and the “volume reduction … (%)” value ([2]; 3 h post-carrageenan) is reported as −16.21%. For the same compound, the paw thickness ([2]; 5 h post-carrageenan) was 7.45±0.26 mm, the “volume reduction … (%)” value ([2]; 5 h post-carrageenan) was −17.27% and the “time to utmost level in plasma” value ([3]; after oral administration (Quintero 2017)) was 3 to 4 h. The excretion half-life ([3]; expelled by the renal system) was “roughly 6 hours”.

With `COc1ccc2c(c1)c(CC(=O)O)c(C)n2C(=O)c1ccc(Cl)cc1` [Indomethacin] the paw withdrawal threshold [1] was 36 ± 7.21 g, the “volume reduction … (%)” value ([2]; 1 h post-carrageenan) was −17.68% and the “volume reduction … (%)” value ([2]; 3 h post-carrageenan) was −35.27%. For the same compound, the paw thickness ([2]; 5 h post-carrageenan) was 5.69±0.27 mm and the “volume reduction … (%)” value ([2]; 5 h post-carrageenan) was −40.45%.

For “Flurbiprofen-Lysine-Gabapentin [Flur/Lys/Gaba]”, the paw withdrawal threshold [1] was 85.75 ± 9.86 g, the “volume reduction … (%)” value ([2]; 1 h post-carrageenan) was −21.80% and the “volume reduction … (%)” value ([2]; 3 h post-carrageenan) was −39.91%. For the same compound, the paw thickness ([2]; 5 h post-carrageenan) was 5.51±0.42 mm, the “volume reduction … (%)” value ([2]; 5 h post-carrageenan) was −42.27% and the “Cmax (ng/mL) Flurbiprofen” value [4] was 14725 ± 1267 ng/mL. For the same compound, the “Cmax (ng/mL) Gabapentin” value [4] was 3008 ± 246 ng/mL.
